# Measured values reported in ChEMBL document CHEMBL1201862, “PubChem BioAssay data set” (2004).
#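 Method: 48-hour compound exposure of cells in 96-well plates, five concentrations, linear interpolation of endpoints. Abbreviation: GI50, concentration required for 50% inhibition of growth.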 Activity calls are given as the source filed them. No stated cut-off is given here; in the data, active = GI50 up to about 1.1 µM and inactive = higher.
# Legend:
# Test in all cases: DTP human tumour cell line panel, 48 h
# NCI/ADR-RES = system: NCI/ADR-RES
# MCF7 = system: MCF7
# M14 = system: M14
# COLO 205 = system: COLO 205
# LOX IMVI = system: LOX IMVI
# SK-MEL-2 = system: SK-MEL-2
# EKVX = system: EKVX
# DU-145 = system: DU-145
# MOLT-4 = system: MOLT-4
# BT-549 = system: BT-549
# HL-60 = system: HL-60
# Malme-3M = system: Malme-3M
# OVCAR-5 = system: OVCAR-5
# RXF 393 = system: RXF 393
# 786-0 = system: 786-0
# MDA-N = system: MDA-N
# OVCAR-4 = system: OVCAR-4
# SF-268 = system: SF-268
# NCI-H460 = system: NCI-H460
# SF-539 = system: SF-539
Structure (SMILES),GI50 (NCI/ADR-RES),GI50 (MCF7),GI50 (M14),GI50 (COLO 205),GI50 (LOX IMVI),GI50 (SK-MEL-2),GI50 (EKVX),GI50 (DU-145),GI50 (MOLT-4),GI50 (BT-549),GI50 (HL-60),GI50 (Malme-3M),GI50 (OVCAR-5),GI50 (RXF 393),GI50 (786-0),GI50 (MDA-N),GI50 (OVCAR-4),GI50 (SF-268),GI50 (NCI-H460),GI50 (SF-539)
CCCCCC(=O)n1[nH]c(=O)n(-c2ccc(OC)cc2)c1=O,> 100 µM (inactive),> 100 µM (inactive),> 100 µM (inactive),> 100 µM (inactive),> 100 µM (inactive),> 100 µM (inactive),> 100 µM (inactive),> 100 µM (inactive),> 100 µM (inactive),> 100 µM (inactive),> 100 µM (inactive),63.1 µM (inactive),> 100 µM (inactive),> 100 µM (inactive),> 100 µM (inactive),> 100 µM (inactive),> 100 µM (inactive),> 100 µM (inactive),> 100 µM (inactive),
O=C(O)CSC1=NC(=O)C2(NN1)c1ccccc1-c1ccccc12,> 10 µM (inactive),> 10 µM (inactive),> 10 µM (inactive),> 10 µM (inactive),> 10 µM (inactive),,> 10 µM (inactive),> 10 µM (inactive),> 10 µM (inactive),> 10 µM (inactive),> 10 µM (inactive),> 10 µM (inactive),,> 10 µM (inactive),> 10 µM (inactive),> 10 µM (inactive),> 10 µM (inactive),> 10 µM (inactive),> 10 µM (inactive),> 10 µM (inactive)
CC(C)CCOC(=O)NC(Nc1ccc(F)cc1)(C(F)(F)F)C(F)(F)F,52.6 µM (inactive),23.2 µM (inactive),6.62 µM (inactive),18.3 µM (inactive),40.9 µM (inactive),53.1 µM (inactive),60.7 µM (inactive),7.36 µM (inactive),19.1 µM (inactive),9.75 µM (inactive),12.9 µM (inactive),> 100 µM (inactive),97.3 µM (inactive),> 100 µM (inactive),> 100 µM (inactive),2.81 µM (inactive),,34.1 µM (inactive),41.3 µM (inactive),16.1 µM (inactive)
O=[N+]([O-])c1ccc2c(c1)Sc1ccccc1N2CCCCCl,> 100 µM (inactive),> 100 µM (inactive),,> 100 µM (inactive),> 100 µM (inactive),,> 100 µM (inactive),> 100 µM (inactive),87.9 µM (inactive),> 100 µM (inactive),> 100 µM (inactive),> 10 µM (inactive),> 100 µM (inactive),> 100 µM (inactive),> 100 µM (inactive),> 100 µM (inactive),3.86 µM (inactive),> 100 µM (inactive),> 100 µM (inactive),> 100 µM (inactive)
COC1(OC)N=C(N)C2(C#N)C(c3ccccc3)NC3=C(CCC3)C12C#N (stereo not given),> 100 µM (inactive),> 100 µM (inactive),> 100 µM (inactive),> 100 µM (inactive),> 100 µM (inactive),> 100 µM (inactive),> 100 µM (inactive),> 100 µM (inactive),> 100 µM (inactive),> 100 µM (inactive),> 100 µM (inactive),> 100 µM (inactive),> 100 µM (inactive),> 100 µM (inactive),> 100 µM (inactive),> 100 µM (inactive),> 100 µM (inactive),> 100 µM (inactive),> 100 µM (inactive),
CCOC(=O)/C=C(/C)Nc1nc2c(c(C(=O)OC)c1C#N)CCCC2,> 100 µM (inactive),> 100 µM (inactive),> 100 µM (inactive),> 100 µM (inactive),> 100 µM (inactive),> 100 µM (inactive),86.1 µM (inactive),> 100 µM (inactive),63 µM (inactive),> 100 µM (inactive),69.3 µM (inactive),> 100 µM (inactive),> 100 µM (inactive),> 100 µM (inactive),> 100 µM (inactive),> 100 µM (inactive),44.7 µM (inactive),> 100 µM (inactive),> 100 µM (inactive),
CN(C)Cc1cc(O)c(O)c(CN(C)C)c1,19.3 µM (inactive),39.6 µM (inactive),22.7 µM (inactive),34.7 µM (inactive),36 µM (inactive),37.2 µM (inactive),16.4 µM (inactive),35.9 µM (inactive),27.9 µM (inactive),54 µM (inactive),24.8 µM (inactive),31.3 µM (inactive),32.4 µM (inactive),50.4 µM (inactive),31.4 µM (inactive),57.8 µM (inactive),42.5 µM (inactive),35.4 µM (inactive),21.4 µM (inactive),
COC(=O)[C@@H]1[C@H]2CC[C@]3(C)[C@@H](OC(C)=O)CC[C@H]3[C@@H]2CC[C@H]1C(C)=O,> 100 µM (inactive),> 100 µM (inactive),> 100 µM (inactive),> 100 µM (inactive),> 100 µM (inactive),> 100 µM (inactive),> 100 µM (inactive),> 100 µM (inactive),> 100 µM (inactive),> 100 µM (inactive),> 100 µM (inactive),> 100 µM (inactive),> 100 µM (inactive),> 100 µM (inactive),> 100 µM (inactive),> 100 µM (inactive),,> 100 µM (inactive),> 100 µM (inactive),> 100 µM (inactive)
COc1c2c(c3c(c1CCC(=O)O)OC(C)(C)C=C3)OC(C)(C)C=C2,> 100 µM (inactive),> 100 µM (inactive),> 100 µM (inactive),> 100 µM (inactive),> 100 µM (inactive),> 100 µM (inactive),74.3 µM (inactive),> 100 µM (inactive),65.9 µM (inactive),> 100 µM (inactive),50.8 µM (inactive),> 100 µM (inactive),> 100 µM (inactive),> 100 µM (inactive),> 100 µM (inactive),31.4 µM (inactive),> 100 µM (inactive),> 100 µM (inactive),,
C=C[C@H]1CN2CCc3c([nH]c4c([C@H]5CCCN5C)c(O)ccc34)[C@@H]2C[C@@H]1C[C@H]1c2[nH]c3ccccc3c2CCN1C [STRYCHNOPENTAMINE],1.74 µM (inactive),0.776 µM (active),1.47 µM (inactive),1.5 µM (inactive),1.15 µM (inactive),1.9 µM (inactive),1.75 µM (inactive),1.63 µM (inactive),,1.94 µM (inactive),0.267 µM (active),1.76 µM (inactive),1.72 µM (inactive),1.04 µM (active),1.43 µM (inactive),1.35 µM (inactive),1.74 µM (inactive),1.58 µM (inactive),1.48 µM (inactive),
O=c1nc2n(cc1/C=C\Br)C1CC(O)C(CO2)O1 (stereo not given),> 100 µM (inactive),> 100 µM (inactive),,> 100 µM (inactive),> 100 µM (inactive),,> 100 µM (inactive),> 100 µM (inactive),> 100 µM (inactive),> 100 µM (inactive),0.792 µM (active),> 100 µM (inactive),> 100 µM (inactive),25 µM (inactive),> 100 µM (inactive),> 100 µM (inactive),> 100 µM (inactive),> 100 µM (inactive),> 100 µM (inactive),38.4 µM (inactive)
Brc1c(C#CCC(c2ccccc2)(c2ccccc2)c2ccccc2)ccc(C#CCC(c2ccccc2)(c2ccccc2)c2ccccc2)c1Br,> 100 µM (inactive),> 100 µM (inactive),> 100 µM (inactive),> 100 µM (inactive),,> 100 µM (inactive),> 100 µM (inactive),> 100 µM (inactive),> 100 µM (inactive),> 100 µM (inactive),> 100 µM (inactive),> 100 µM (inactive),> 100 µM (inactive),> 100 µM (inactive),> 100 µM (inactive),> 100 µM (inactive),> 100 µM (inactive),> 100 µM (inactive),> 100 µM (inactive),> 100 µM (inactive)
COc1ccc(-c2nc(Nc3ccccc3)sc2Cc2sc(Nc3ccccc3)nc2-c2ccc(OC)cc2)cc1,> 100 µM (inactive),8.05 µM (inactive),,7.57 µM (inactive),15.5 µM (inactive),,> 100 µM (inactive),> 100 µM (inactive),12.6 µM (inactive),> 100 µM (inactive),0.787 µM (active),> 100 µM (inactive),> 100 µM (inactive),4.35 µM (inactive),98.9 µM (inactive),46.1 µM (inactive),24.3 µM (inactive),> 100 µM (inactive),51.8 µM (inactive),> 100 µM (inactive)
CCOc1cc(C(=O)O)c2c(ccc3ccc(OC)c(OC)c32)c1OC,> 100 µM (inactive),> 100 µM (inactive),> 100 µM (inactive),> 100 µM (inactive),> 100 µM (inactive),> 100 µM (inactive),> 100 µM (inactive),> 100 µM (inactive),> 100 µM (inactive),> 100 µM (inactive),> 100 µM (inactive),> 100 µM (inactive),> 100 µM (inactive),> 100 µM (inactive),> 100 µM (inactive),> 100 µM (inactive),> 100 µM (inactive),> 100 µM (inactive),> 100 µM (inactive),
